Assay results from patent publication US9833454B2, “Difluoromethoxy compound with low bioactivation potential for the reduction of beta-amyloid production” (BRISTOL-MYERS SQUIBB COMPANY, priority 2014, dated 2017).
Several values for one entry are separate records, joined by “and”; a condition that tells them apart may be missing. Equal entries are not always repeated.

Target: CYP2D6 (Homo sapiens, UniProt P10635)
Experiment: biochemical

Chain of CYP2D6 (P10635 whole entry): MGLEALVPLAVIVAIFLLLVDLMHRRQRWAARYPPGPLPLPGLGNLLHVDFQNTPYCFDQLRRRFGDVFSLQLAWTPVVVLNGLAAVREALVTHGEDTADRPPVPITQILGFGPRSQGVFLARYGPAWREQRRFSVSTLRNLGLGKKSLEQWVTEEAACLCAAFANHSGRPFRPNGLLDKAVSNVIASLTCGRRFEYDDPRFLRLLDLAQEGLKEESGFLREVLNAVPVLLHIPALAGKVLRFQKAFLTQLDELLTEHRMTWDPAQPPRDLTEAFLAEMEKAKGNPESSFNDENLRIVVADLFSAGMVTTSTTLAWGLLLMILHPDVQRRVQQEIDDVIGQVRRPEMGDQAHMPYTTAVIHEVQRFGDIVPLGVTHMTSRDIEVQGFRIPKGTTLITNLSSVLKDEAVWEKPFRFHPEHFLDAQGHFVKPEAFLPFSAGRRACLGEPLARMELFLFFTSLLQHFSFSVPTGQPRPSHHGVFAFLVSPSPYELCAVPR

COCC(=O)O[C@]1(CCN(C)CCCc2nc3ccccc3[nH]2)CCc2cc(F)ccc2[C@@H]1C(C)C [Mibefradil, reference compound]
IC50: 1320 nM and 440 nM
